From PMC7211195 (Investigational New Drugs, 2019)
Where two headings read alike, the source gives them in different places.

Assay: Lapatinib pharmacokinetics and uptake in rat brain tissue (BT);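 as to BT corr (BT homogenate corrected), single rat: brain concentration corrected for residual brain blood by the Fridén method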;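 as to BT corr (BT homogenate), single rat: brain concentration corrected for residual brain blood by the Fridén method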
Assay type: in vivo, rats
Conditions: male, Wistar, rat; for AUC(0-inf) / AUC(0-t) / Cmax / Tmax / k el: brain tissue
Experimental: This study was conducted on rats, which are a promising model to predict P-gp-based drug-drug interactions at the human BBB [15]. The animals were allowed to acclimate for one week before the beginning of the experiments. Adult male Wistar-strain rats (weight 470–525 g) were used in the study. The animals were maintained under standard breeding conditions with a 12/12 h light-dark cycle (lights on at 6.00 a.m., lights off at 6.00 p.m.) at constant room temperature (23 ± 2 °C), relative humidity (55 ± 10%) and ad libitum access to food and water. The experimental protocol for this study was reviewed and approved by the Local Ethics Committee. To obtain consistent data, the study was based on the required minimum number of animals and observation time. […] Three rats were used at each time point (n = 3). In total, the research was conducted on 66 animals (n = 33 in the experimental group and n = 33 in the control group).
Elacridar was freshly dissolved in a vehicle at an initial concentration of 20 mg/mL. […] A volume of 80 μL of blood was collected from each rat by cutting off a piece of its tail. The blood samples were collected into heparinized test tubes at the following time points: […], and they were immediately centrifuged at 2880 g for 10 min at 4 °C. The anaesthetized rats (anaesthetized by intramuscular administration of 50 mg/kg ketamine and 10 mg/kg xylazine) were prepared for cisterna magna puncture. The hair over the puncture was removed and the skin was disinfected with alcohol. The animals were placed in a recumbent position with an elevated rear part of the body. The animals’ heads were slightly flexed and immobilized with the operator’s left hand. The space between the occiput rostrally and the atlas (C1) of the spinal column caudally was gently palpated with the left thumb. A 0.7 × 20 G needle with polyethylene tubing (Terumo Poland, Warsaw, Poland) was gently inserted at an approximate angle of 80–90° through the skin with the operator’s right hand into the midsagittal region. The moment that dura mater perforation was perceptible, a small amount of CSF was found in the needle tubing. To sample additional CSF, a 1 mL insulin syringe (Becton Dickinson, Warsaw, Poland) was used to collect 80–120 μL of CSF by very gentle aspiration. Only clear CSF was collected for further analysis. […] The animals’ brains were immediately dissected, washed in 0.9% NaCl and divided along the longitudinal axis. One of the brain hemispheres was again rinsed three times with 5 mL of 0.9% NaCl, weighed and homogenized with 0.9% NaCl (4 mL per 1 g of BT) in an Ultra-Turrax homogenizer (Witko, Łódź, Poland). The homogenate was then centrifuged at 4500 g for 10 min. All samples of the rat BP, CSF, and BT homogenate supernatant were stored at −80 °C until analysis.
The chromatographic analysis was conducted using a 1260 Infinity system (Agilent Technologies, Santa Clara, USA) equipped with a Kinetex® C18 column (50 × 4.6 mm, 2.6 μm, Phenomenex, Torrance, USA), which was maintained at 35 °C. The mobile phase consisted of 0.1% formic acid (v/v) in water with 5 mM ammonium formate (solvent A) and acetonitrile with 10% phase A (v/v, solvent B). The analyte and internal standard (IS, erlotinib) were eluted using a gradient run of 10 min as follows: 95% A at 0–2 min; 95%–5% A at 2–4 min; 5% A at 4–5 min; 5%–95% A at 5–6 min; 95% A at 6–10 min. The flow rate and injection volume were set at 0.7 mL/min and 10 μL, respectively. The needle was washed for 30 s in a mixture of acetonitrile, methanol, isopropanol, water, and formic acid (50:20:15:15:0.25, v/v/v/v/v).

[1] = brain tissue homogenate, oral, lapatinib 100 mg/kg + elacridar, read-out: BT corr (BT homogenate), S
[2] = brain tissue homogenate, oral, lapatinib 100 mg/kg + elacridar, read-out: BT corr (BT homogenate), single rat
[3] = brain tissue homogenate, po, 100 mg/kg, lapatinib p.o. 100 mg/kg alone, read-out: BT corr (BT homogenate corrected), S
[4] = brain tissue homogenate, po, 100 mg/kg, lapatinib p.o. 100 mg/kg alone, read-out: BT corr (BT homogenate corrected), single rat
[5] = brain tissue homogenate, po, 100 mg/kg, lapatinib p.o. 100 mg/kg alone, read-out: Clapatinib in BT, S (medium value)
[6] = brain tissue homogenate, po, 100 mg/kg, lapatinib p.o. 100 mg/kg alone, read-out: Clapatinib in BT, single rat
[7] = brain, oral, lapatinib 100 mg/kg + elacridar, read-out: BT corr (BT homogenate), single rat
[8] = brain, oral, lapatinib 100 mg/kg + elacridar, read-out: Clapatinib in BT, S
[9] = brain, oral, lapatinib 100 mg/kg + elacridar, read-out: Clapatinib in BT, single rat
[10] = brain, po, 100 mg/kg, lapatinib 100 mg/kg oral + 5 mg/kg elacridar (IE+L)
[11] = brain, po, 100 mg/kg, lapatinib 100 mg/kg oral alone (IIL)

concentration at 2 h [1]: 71.3 ng/mL | concentration at 3 h [1]: 198 ng/mL | concentration at 3 h [2]: 170 ng/mL | concentration at 4 h [1]: 85 ng/mL | concentration at 4 h [2]: 91.9 ng/mL | concentration at 6 h [1]: 85.8 ng/mL | concentration at 6 h [2]: 87.3 ng/mL | concentration at 8 h [1]: 85 ng/mL | concentration at 8 h [2]: 91.5 ng/mL | concentration at 12 h [1]: 54.4 ng/mL | concentration at 12 h [2]: 63.6 ng/mL | concentration at 24 h [1]: 44.7 ng/mL | concentration at 24 h [2]: 52.7 ng/mL | concentration at 0.25 h [3]: 27.9 ng/mL | concentration at 0.25 h [4]: 22.5 ng/mL | concentration at 0.25 h [5]: 34.3 ng/mL | concentration at 0.25 h [6]: 27.7 ng/mL | concentration at 0.5 h [3]: 31.5 ng/mL | concentration at 0.5 h [4]: 24 ng/mL | concentration at 0.5 h [5]: 44.9 ng/mL | concentration at 0.5 h [6]: 36.2 ng/mL | concentration at 1 h [3]: 55.5 ng/mL | concentration at 1 h [4]: 48.1 ng/mL | concentration at 1 h [5]: 76 ng/mL | concentration at 1 h [6]: 66.5 ng/mL | concentration at 2 h [3]: 41.4 ng/mL | concentration at 2 h [4]: 30.1 ng/mL | concentration at 2 h [5]: 63.7 ng/mL | concentration at 2 h [6]: 49.8 ng/mL | concentration at 3 h [3]: 111 ng/mL | concentration at 3 h [4]: 139 ng/mL | concentration at 3 h [5]: 134 ng/mL | concentration at 3 h [6]: 115 ng/mL | concentration at 4 h [3]: 115 ng/mL | concentration at 4 h [4]: 94.2 ng/mL | concentration at 4 h [5]: 147 ng/mL | concentration at 4 h [6]: 133 ng/mL | concentration at 6 h [3]: 81.9 ng/mL | concentration at 6 h [5]: 101 ng/mL | concentration at 6 h [6]: 131 ng/mL | concentration at 8 h [3]: 66.2 ng/mL | concentration at 8 h [4]: 87.5 ng/mL | concentration at 8 h [5]: 85.5 ng/mL | concentration at 8 h [6]: 108 ng/mL | concentration at 12 h [5]: 59.6 ng/mL | concentration at 0.25 h [7]: 30.7 ng/mL | concentration at 0.25 h [8]: 40.8 ng/mL | concentration at 0.25 h [9]: 37.6 ng/mL | concentration at 0.5 h [7]: 45.2 ng/mL | concentration at 0.5 h [8]: 58.8 ng/mL | concentration at 0.5 h [9]: 62 ng/mL | concentration at 1 h [8]: 98.6 ng/mL | concentration at 1 h [9]: 95.2 ng/mL | concentration at 2 h [8]: 102 ng/mL | concentration at 3 h [8]: 221 ng/mL | concentration at 3 h [9]: 198 ng/mL | concentration at 4 h [8]: 97.6 ng/mL | concentration at 4 h [9]: 107 ng/mL | concentration at 6 h [8]: 98.7 ng/mL | concentration at 6 h [9]: 100 ng/mL | concentration at 8 h [8]: 102 ng/mL | concentration at 8 h [9]: 98.5 ng/mL | concentration at 12 h [9]: 86.5 ng/mL | concentration at 24 h [8]: 56.9 ng/mL | concentration at 24 h [9]: 65.5 ng/mL | AUC(0-inf) [10]: 2520 ± 611 ng·h/mL | AUC(0-t) [10]: 1610 ± 131 ng·h/mL | Cmax [10]: 198 ± 39 ng/mL | Tmax [10]: 3 h | k el [10]: 1.39e-05 s⁻¹ | AUC(0-inf) [11]: 1350 ± 712 ng·h/mL | AUC(0-t) [11]: 836 ± 21.2 ng·h/mL | Cmax [11]: 128 ± 16.4 ng/mL | Tmax [11]: 4.5 ± 2.12 h | k el [11]: 6.94e-05 s⁻¹ | concentration at 12 h (brain, po, 100 mg/kg, lapatinib p.o. 100 mg/kg alone, read-out: BT corr (BT homogenate corrected), S): 44.5 ng/mL
SMILES: CS(=O)(=O)CCNCc1ccc(-c2ccc3ncnc(Nc4ccc(OCc5cccc(F)c5)c(Cl)c4)c3c2)o1 [lapatinib, N-{3-Chloro-4-[(3-fluorobenzyl)oxy]phenyl}-6-[5-({[2-(methylsulfonyl)ethyl]amino}methyl)-2-furyl]-4-quinazolinamine]
